Results as given in PMC7822874, “Chemoprotective antimalarials identified through quantitative high-throughput screening of Plasmodium blood and liver stage parasites” (Scientific Reports, 2021).
Where “and” joins values, the source holds several entries; their conditions need not be identical. Identical values can stand only once. Like-named read-outs stand apart in the source and are kept apart here.

What was measured:
[1] = test system: T1, Plasmodium falciparum Dd2-attB-ScDHODH (transgenic line expressing yeast DHODH), asexual blood stages; assay: organism not typed; set-up: replicate k of 3 (each line is one of three independent assays; the three lines of one compound and parasite line follow each other)
T1 construct: Dd2-attB-ScDHODH, the transgenic line that expresses yeast DHODH
How it was run: (§1)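 We compare activity in parasites carrying fumarate-using yeast DHODH with that in the parental line; mETC or parasite DHODH inhibitors are bypassed by this enzyme. Data come from three independent assays, analysed by two-sided Student's t-tests.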

[2] = test system: T2, Plasmodium falciparum Dd2-attB (parental line), asexual blood stages; assay: microbe, parasite or virus in culture; set-up: replicate k of 3 (each line is one of three independent assays; the three lines of one compound and parasite line follow each other); conditions: n = 1; for Individual replicates / Log AC50 (M): 72 h; for AC50: Plasmodium falciparum, DD2, 72 h, read-out: Individual replicates / Log AC50 (converted)
T2 construct: Dd2-attB, the isogenic parental line
How it was run: as §1

[3] = test system: T2, Plasmodium falciparum Dd2-attB (parental line), asexual blood stages; assay: microbe, parasite or virus in culture; set-up: species or system P. falciparum Dd2-attB in human erythrocytes; SYBR Green-I proliferation assay, Dd2-attB parental line, asexual blood stages; conditions: 72 h; for AC50: Plasmodium falciparum, DD2, Erythrocyte; for Calculated / Average Log AC50 (M): mean of replicates, inhibitor
[4] = 72 h; n = 1; read-out: Individual replicates / Log AC50 (converted)
[5] = read-out: Calculated / Average Log AC50 (M), mean of replicates, 72 h (converted)

| Compound | Individual replicates / Log AC50 (M) ([1]; 72 h, n = 1) | AC50 [1, 4] [µM] | Individual replicates / Log AC50 (M) [2] | AC50 [3, 5] [M] | Individual replicates / Log AC50 (M) ([1]; 72 h; n = 1) | AC50 [2] [µM] | AC50 ([3]; read-out: Calculated / Average Log AC50 (M) (converted)) | Calculated / Average Log AC50 (M) [3] [M] |
| --- | --- | --- | --- | --- | --- | --- | --- | --- |
| CCOC(=O)c1ccnc(-c2ncn(C)c2-c2ccc(OC)cc2)c1 [NCGC00409816-01] | -4.9486 Log AC50 (M) and -4.7986 Log AC50 (M) | 7.97 | -5.1986 Log AC50 (M) and -4.8486 Log AC50 (M) and -5.0986 Log AC50 (M) | 8.94e-06 | – | – | – | – |
| Cc1cccc(C)c1Nc1c(-c2ccccn2)nc2ccc(Cl)cn12 [NCGC00106608-03] | – | 15.9 | -4.7986 Log AC50 (M) and -4.9486 Log AC50 (M) | 1.42e-05 | -4.7986 Log AC50 (M) | 15.9 | – | – |
| Oc1ccc(COCc2ccccc2)c2cccnc12 [MLS000034722-02] | – | 14.2 | -4.8986 Log AC50 (M) | 1.13e-05 | -4.8486 Log AC50 (M) | 8.94 | – | – |
| CN1CCN(C(=O)c2ccc(-c3cc(O)c4ncccc4c3)cc2)CC1 [NCGC00244524-01] | -5.0486 Log AC50 (M) | 15.9 | -5.0486 Log AC50 (M) and -5.0986 Log AC50 (M) | 1.04e-05 | – | 15.9 | – | – |
| CCNC(=O)Oc1cc(-c2cccc(C(=O)NCCCc3ccccc3)c2)cc2cccnc12 [NCGC00372508-01] | -5.0486 Log AC50 (M) | 6.33 | -5.1986 Log AC50 (M) and -4.7486 Log AC50 (M) and -5.0986 Log AC50 (M) | – | – | – | 9.65e-06 | – |
| O=[S+]([O-])(c1nc2ccccc2[nH]1)N(CCc1ccccc1)CCN1CCCCC1 [NCGC00389114-01] | -5.6986 Log AC50 (M) and -5.2486 Log AC50 (M) | – | -5.5486 Log AC50 (M) (2×) and -5.0486 Log AC50 (M) | 4.15e-06 | – | – | – | – |
| Oc1ccc(CNc2nccc3ccccc23)c2cccnc12 [NCGC00241025-01] | -5.2486 Log AC50 (M) and -4.7486 Log AC50 (M) | – | -5.2486 Log AC50 (M) and -4.8986 Log AC50 (M) and -5.1986 Log AC50 (M) | 7.67e-06 | – | – | – | – |
| O=C(O)CCNc1cc(N2CCc3ccccc3CC2)nc(-c2cccnc2)n1 [NCGC00351549-02] | -4.8486 Log AC50 (M) (2×) and -4.7986 Log AC50 (M) | – | -4.9986 Log AC50 (M) and -4.8486 Log AC50 (M) | – | – | 14.2 | – | -4.8986 |
| C=C[S+](=O)([O-])N1CCCN(c2cc(N(CCC(=O)O)[S+](=O)([O-])C=C)nc(-c3ccccn3)n2)CC1 [NCGC00420875-01] | – | 15.9 | – | 1.53e-05 | – | 11.3 | – | – |
| O=C(NCCCN1CCCCC1)c1cccc(-c2cc(O)c3ncccc3c2)c1 [NCGC00244529-01] | -4.7986 Log AC50 (M) | 8.94 | -5.0486 Log AC50 (M) | 1.04e-05 | – | 14.2 | – | – |
| CN(C)CCCN1CCN(C(=O)c2cccc(-c3cc(O)c4ncccc4c3)c2)CC1 [NCGC00247746-01] | – | 15.9 | -4.7486 Log AC50 (M) | 1.53e-05 | – | 11.3 | – | – |
| CN(C)CC(C)(C)CNC(=O)c1cccc(-c2cc(O)c3ncccc3c2)c1 [NCGC00244532-01] | -4.7486 Log AC50 (M) and -5.0986 Log AC50 (M) | – | -4.7986 Log AC50 (M) and -5.1486 Log AC50 (M) and -4.8486 Log AC50 (M) | 1.17e-05 | – | – | – | – |
| O=C(NCc1cccnc1)c1cccc(-c2cc(O)c3ncccc3c2)c1 [NCGC00244537-01] | -4.8486 Log AC50 (M) | 8.94 | -4.7986 Log AC50 (M) | 1.31e-05 | – | 7.97 | – | – |
| O=C(O)c1ccc(O)c2ncc(NCC3CCCN(CCc4ccccc4)C3)cc12 (stereo not drawn) [NCGC00241759-01] | -4.8486 Log AC50 (M) | 8.94 | -5.0486 Log AC50 (M) | 1.04e-05 | – | 7.1 | – | – |
| O=C(NC1CCN(C(=O)c2cc(-c3ccccc3)n[nH]2)C1)c1ccccc1 (stereo not drawn) [NCGC00492307-01] | – | 14.2 | – | 1.59e-05 | – | – | – | – |
| Oc1ccc(CNc2ccccc2F)c2cccnc12 [NCGC00031503-02] | -4.7486 Log AC50 (M) and -4.7986 Log AC50 (M) | 20 | -4.9986 Log AC50 (M) | 1.22e-05 | – | 17.8 | – | – |

| Compound | Individual replicates / Log AC50 (M) ([1]; 72 h, n = 1) | AC50 [1, 4] [µM] | Individual replicates / Log AC50 (M) [2] | AC50 [3, 5] [M] | Individual replicates / Log AC50 (M) ([1]; 72 h; n = 1) | AC50 [2] [µM] | AC50 ([3]; read-out: Calculated / Average Log AC50 (M) (converted)) | Calculated / Average Log AC50 (M) [3] [M] |
| --- | --- | --- | --- | --- | --- | --- | --- | --- |
| Oc1ccc(CNc2cc(Br)ccn2)c2cccnc12 [NCGC00241030-01] | -5.2486 Log AC50 (M) and -5.1986 Log AC50 (M) and -4.8986 Log AC50 (M) | – | -5.2486 Log AC50 (M) and -5.0486 Log AC50 (M) | 6.58e-06 | – | 5.64 | – | – |
| Oc1ccc(/C=C/c2c(F)cccc2F)c2cccnc12 [NCGC00184904-01] | -4.7486 Log AC50 (M) and -4.7986 Log AC50 (M) | – | -5.0986 Log AC50 (M) and -5.0486 Log AC50 (M) | 1e-05 | – | 14.2 | – | – |
| O=C(O)c1ccnc(-n2ncc(C(OCCN3CCCCC3)c3ccccc3Cl)c2-c2cccc(-c3ccccc3)c2)c1 (stereo not drawn) [NCGC00481639-01] | -4.9986 Log AC50 (M) and -5.1486 Log AC50 (M) | – | -5.3986 Log AC50 (M) and -5.5986 Log AC50 (M) | – | – | – | – | -5.482 |
| COC(=O)c1ccnc2cc(C(OCCN3CCCCC3)c3ccccc3Cl)sc12 (stereo not drawn) [NCGC00481502-01] | -4.7486 Log AC50 (M) | 17.8 | -5.0486 Log AC50 (M) and -4.8486 Log AC50 (M) | 1.26e-05 | – | 15.9 | – | – |
| COc1ccc(-c2c(-c3cc([N+](=O)[O-])ccn3)ncn2C)cc1 [NCGC00414991-01] | -4.7986 Log AC50 (M) | 8.94 | – | 1.22e-05 | – | 14.2 | – | – |
| O=C(O)c1ccncc1Nc1nn(CCN2CCC(F)(F)CC2)c2ccc(F)cc12 [NCGC00384162-01] | – | 17.8 | – | 1.93e-05 | – | 15.9 | – | – |
| O=C(O)c1ccc(O)c2ncc(N3CCC(N4CCOCC4)CC3)cc12 [NCGC00249380-01] | – | 17.8 | – | 1.47e-05 | – | – | – | – |
| CCOC(=O)c1ccc(O)c2ncc(N3CCC(C(=N)N)CC3)cc12 [NCGC00241051-01] | -4.7486 Log AC50 (M) and -4.8986 Log AC50 (M) | – | -5.1486 Log AC50 (M) | 1.08e-05 | – | 12.6 | – | – |
| NC(=O)c1ccc(O)c2ncccc12 [NCGC00184888-01] | – | 20 | – | 1.59e-05 | – | 14.2 | – | – |
| CC1Cc2cc([S+](=O)([O-])NCc3ccc(N(C)C)cc3)ccc2N1C(=O)C1CCC1 (stereo not drawn) [NCGC00124605-03] | – | 15.9 | – | 1.47e-05 | – | – | – | – |
| O=C(O)CCNc1cc(N2CCc3ccccc3CC2)nc(-c2cccnc2)n1 [NCGC00351549-01] | – | 15.9 | – | 2.08e-05 | – | – | – | – |
| Cc1cccc(CN2CCN(c3cnc4c(O)ccc(C(=O)O)c4c3)CC2)c1 [NCGC00249381-01] | – | – | – | 1.78e-05 | – | 15.9 | – | – |
| CCOc1ccc(-c2[nH]c3c(C#N)cnn3c2NC2CCCCC2)cc1 [NCGC00119971-02] | – | – | – | 1.85e-05 | – | 15.9 | – | – |
| Oc1ccc(COC2CCN(Cc3ccccc3)C2)c2cccnc12 (stereo not drawn) [NCGC00183382-01] | – | – | -5.2986 Log AC50 (M) and -5.1986 Log AC50 (M) and -4.7986 Log AC50 (M) | 7.97e-06 | – | – | – | – |
| Cn1ccnc1CCOC(c1cc2nccc(C(=O)O)c2[nH]1)c1ccccc1Cl (stereo not drawn) [NCGC00421835-01] | – | – | – | 1.85e-05 | – | 15.9 | – | – |
| O=C(NC1CCN(c2cc(-c3ccc(Cl)cc3)n[nH]2)C1)c1ccccc1 (stereo not drawn) [NCGC00437928-03] | – | 12.6 | – | 1.85e-05 | – | – | – | – |
